target: Cathepsin S (Homo sapiens, UniProt P25774); experiment: Cathepsin S inhibition, fluorogenic peptide substrate kinetic assay; format: biochemical; settings: Table II; Cathepsin S inhibition constant, pH5.5; read-out: Ki Cat. S
How it was run: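 Ki values derive from apparent constants fitted to progress curves, corrected for competition with substrate via [S] and Km. Kinetics were monitored at 380 nm excitation/450 nm emission, after substrate addition (Ac-HPVK-ACC, 50 μM final) to start the reaction.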

Sequence of Cathepsin S (P25774 115-331, species assumed): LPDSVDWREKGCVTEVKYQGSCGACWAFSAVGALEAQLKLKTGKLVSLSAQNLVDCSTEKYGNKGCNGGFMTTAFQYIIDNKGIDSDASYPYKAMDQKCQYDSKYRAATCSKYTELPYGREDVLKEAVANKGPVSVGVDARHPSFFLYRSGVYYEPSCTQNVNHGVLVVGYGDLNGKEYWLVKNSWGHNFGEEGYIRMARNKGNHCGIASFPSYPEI

| Compound | Ki [µM] |
| --- | --- |
| C[C@@H](CNc1cccc(-c2nnn[nH]2)c1)NC(=O)[C@H](CC1CCCCC1)NC(=O)OCc1ccccc1 [Compound 180, (2-Cyclohexyl-1-(S)-{1-(S)-methyl-2-[3-(1H-tetrazol-5-yl)-phenylamino]-ethylcarbamoyl}-ethyl)-carbamic acid benzyl ester] | < 1 |
| C[C@@H](CNc1ccc(C(=N)N)cc1)NC(=O)C(NC(=O)c1ccc(OCc2ccccc2)cc1)c1ccc(Cl)cc1Cl (mixture of isomers) [Compound 175, 4-Benzyloxy-N-(R,S)-{[2-(4-amidinophenylamino)-1-(S)-methyl-ethylcarbamoyl]-(2,4-dichloro-phenyl)-methyl}-benzamide] | < 1 |
| Cn1cnc(S(=O)(=O)N[C@@H](CC2CCCCC2)C(=O)NCCN2CCc3cc(F)ccc32)c1 [Compound 255, (S)-3-Cyclohexyl-N-[2-(5-fluoro-2,3-dihydro-indol-1-yl)-ethyl]-2-(1-methyl-1H-imidazole-4-sulfonylamino)-propionamide] | < 1 |
| O=C(N[C@@H](CC1CCCCC1)C(=O)NCCN1CCc2cc(F)ccc21)C1CCN(S(=O)(=O)c2ccc(F)cc2)CC1 [Compound 66, 1-(4-Fluoro-benzenesulfonyl)-piperidine-4-carboxylic acid (S)-{2-cyclohexyl-1-[2-(5-fluoro-2,3-dihydro-indol-1-yl)-ethylcarbamoyl]-ethyl}-amide] | < 1 |
| C[C@@H](CNc1ccc(OC(F)(F)F)cc1)NC(=O)[C@H](CC1CCCCC1)NC(=O)[C@@H]1CCCO1 [Compound 29, Tetrahydrofuran-2-(S)-carboxylic acid {2-cyclohexyl-1-(S)-[1-(S)-methyl-2-(4-trifluoromethoxy-phenylamino)-ethylcarbamoyl]-ethyl}-amide] | < 0.1 |
| C[C@@H](CNc1ccc(OC(F)(F)F)cc1)NC(=O)[C@H](CC1CCCCC1)NC(=O)c1cc(-c2cccc(F)c2)no1 [Compound 145, 3-(3-Fluoro-phenyl)-isoxazole-5-carboxylic acid {2-cyclohexyl-1-(S)-[1-(S)-methyl-2-(4-trifluoromethoxy-phenylamino)-ethylcarbamoyl]-ethyl}-amide] | < 1 |
| (S)-3-Cyclohexyl-N-[2-(5-fluoro-2,3-dihydro-indol-1-yl)-ethyl]-2-(5-methyl-1-phenyl-1H-pyrazole-4-sulfonylamino)-propionamide [Compound 222] | < 1 |
| C[C@@H](CNc1ccc2c(c1)C(=O)OC2)NC(=O)[C@H](CC1CCCCC1)NC(=O)c1ccc(-c2cccc(F)c2)o1 [Compound 137, 5-(3-Fluoro-phenyl)-furan-2-carboxylic acid {2-cyclohexyl-1-(S)-[1-(S)-methyl-2-(3-oxo-1,3-dihydro-isobenzofuran-5-ylamino)-ethylcarbamoyl]-ethyl}-amide] | < 0.1 |
| C[C@@H](CN1CCc2cc(F)ccc21)NC(=O)[C@H](CC1CCCCC1)NS(=O)(=O)c1csc(-c2cnco2)c1 [Compound 250, (S,S)-3-Cyclohexyl-N-[2-(5-fluoro-2,3-dihydro-indol-1-yl)-1-methyl-ethyl]-2-(5-oxazol-5-yl-thiophene-3-sulfonylamino)-propionamide] | < 0.1 |
| C[C@@H](CNc1cccc(F)c1F)NC(=O)[C@H](CC1CCCCC1)NC(=O)c1ccc(-c2cccc(F)c2)o1 [Compound 90, 5-(3-Fluoro-phenyl)-furan-2-carboxylic acid {2-cyclohexyl-1-(S)-[2-(2,3-difluoro-phenylamino)-1-(S)-methyl-ethylcarbamoyl]-ethyl}-amide] | < 0.1 |
| CC(C(=O)N[C@@H](CC1CCCCC1)C(=O)NCCN1CCc2cc(F)ccc21)c1ccc(Cl)cc1 (stereo partly drawn) [Compound 64, 2-(4-Chloro-phenyl)-N-{2-cyclohexyl-1-(S)-[2-(5-fluoro-2,3-dihydro-indol-1-yl)-ethylcarbamoyl]-ethyl}-propionamide] | < 0.1 |
| C[C@@H](CNc1ccc(OC(F)(F)F)cc1)NC(=O)[C@H](CC1CCCCC1)NS(=O)(=O)c1cccc(OC(F)(F)F)c1 [Compound 182, (S,S)-3-Cyclohexyl-N-[1-methyl-2-(4-trifluoromethoxy-phenylamino)-ethyl]-2-(3-trifluoromethoxy-benzenesulfonylamino)-propionamide] | < 0.1 |
| COCCC(=O)N[C@@H](CC1CCCCC1)C(=O)N[C@@H](C)CNc1ccc(OC(F)(F)F)cc1 [Compound 123, 3-Cyclohexyl-2-(S)-(3-methoxy-propionylamino)-N-[1-(S)-methyl-2-(4-trifluoromethoxy-phenylamino)-ethyl]-propionamide] | < 0.1 |
| Cc1cccc(S(=O)(=O)N[C@@H](CC2CCCCC2)C(=O)NCCN2CCc3cc(F)ccc32)c1 [Compound 243, (S)-3-Cyclohexyl-N-[2-(5-fluoro-2,3-dihydro-indol-1-yl)-ethyl]-2-(toluene-3-sulfonylamino)-propionamide] | < 0.1 |
| C[C@@H](CNc1ccc(OC(F)F)cc1)NC(=O)[C@H](CC1CCCCC1)NC(=O)c1ccc(-c2ccc(F)cc2)o1 [Compound 104, 5-(4-Fluoro-phenyl)-furan-2-carboxylic acid {2-cyclohexyl-1-(S)-[2-(4-difluoromethoxy-phenylamino)-1-(S)-methyl-ethylcarbamoyl]-ethyl}-amide] | < 0.1 |
| COc1c(C)cc(NC[C@H](C)NC(=O)[C@H](CC2CCCCC2)NC(=O)c2ccc(-c3cccc(F)c3)o2)cc1C [Compound 115, 5-(3-Fluoro-phenyl)-furan-2-carboxylic acid {2-cyclohexyl-1-(S)-[2-(4-methoxy-3,5-dimethyl-phenylamino)-1-(S)-methyl-ethylcarbamoyl]-ethyl}-amide] | < 0.1 |
| C[C@@H](C(=O)N[C@@H](CCC1CCCCC1)C(=O)NCCN1CCc2cc(F)ccc21)c1ccccc1 [Compound 102, 4-Cyclohexyl-N-[2-(5-fluoro-2,3-dihydro-indol-1-yl)-ethyl]-2-(S)-(2-(R)-phenyl-propionylamino)-butyramide] | < 0.1 |
| C[C@@H](CNc1ccccc1F)NC(=O)[C@H](CC1CCCCC1)NC(=O)c1ccc(-c2cccc(F)c2)o1 [Compound 95, 5-(3-Fluoro-phenyl)-furan-2-carboxylic acid {2-cyclohexyl-1-(S)-[2-(2-fluoro-phenylamino)-1-(S)-methyl-ethylcarbamoyl]-ethyl}-amide] | < 0.1 |
| C[C@@H](CNc1ccc(OC(F)(F)F)cc1)NC(=O)[C@H](CC1CCCCC1)NC(=O)OC1CCS(=O)(=O)CC1 [Compound 186, (S,S)-{2-Cyclohexyl-1-[1-methyl-2-(4-trifluoromethoxy-phenylamino)-ethylcarbamoyl]-ethyl}-carbamic acid 1,1-dioxo-hexahydro-1λ^6-thiopyran-4-yl ester] | < 0.1 |

Other lines, results leading:

| Ki [µM] | Compound |
| --- | --- |
| < 0.1 | COc1cccc(C(=O)N[C@@H](CC(C)(C)C)C(=O)N[C@@H](CO)CN2CCc3cc(F)ccc32)c1 [Compound 156, N-{1-(S)-[2-(5-Fluoro-2,3-dihydro-indol-1-yl)-1-(R)-hydroxymethyl-ethylcarbamoyl]-3,3-dimethyl-butyl}-3-methoxy-benzamide] |
| < 0.1 | Cc1cccc(C(=O)N[C@@H](Cc2ccc(Cl)cc2)C(=O)NCCN2CCc3cc(F)ccc32)c1 [Compound 199, N-((S)-1-(2-(5-fluoroindolin-1-yl)ethylcarbamoyl)-2-(4-chlorophenyl)ethyl)-3-methylbenzamide] |
| < 1 | CC(C)(C)C[C@H](NC(=O)OCc1ccccc1)C(=O)N[C@@H](CC(=O)OC(C)(C)C)CN1CCc2cc(F)ccc21 [Compound 158, 3-(S)-(2-(S)-Benzyloxycarbonylamino-4,4-dimethyl-pentanoylamino)-4-(5-fluoro-2,3-dihydro-indol-1-yl)-butyric acid tert-butyl ester] |
| < 0.1 | C[C@@H](CNc1cccc(S(C)(=O)=O)c1)NC(=O)[C@H](CC(C)(C)C)NC(=O)c1ccc(-c2cccc(F)c2)o1 [Compound 130, 5-(3-Fluoro-phenyl)-furan-2-carboxylic acid {1-(S)-[2-(3-methanesulfonyl-phenylamino)-1-(S)-methyl-ethylcarbamoyl]-3,3-dimethyl-butyl}-amide] |
| < 10 | Cc1cccc(C(=O)N[C@@H](Cc2ccccc2)C(=O)NC(C)(C)CN2CCc3cc(F)ccc32)c1 [Compound 28, N-{(1S)-[2-(5-Fluoro-2,3-dihydro-indol-1-yl)-1,1-dimethyl-ethylcarbamoyl]-2-phenyl-ethyl}-3-methyl-benzamide] |
| < 0.1 | COc1cccc(C(=O)N[C@@H](CC2CCCCC2)C(=O)N[C@@H](CC(=O)O)CN2CCc3cc(F)ccc32)c1 [Compound 162, 3-(S)-[3-Cyclohexyl-2-(S)-(3-methoxy-benzoylamino)-propionylamino]-4-(5-fluoro-2,3-dihydro-indol-1-yl)-butyric acid] |
| < 10 | COc1cccc(C(=O)N[C@@H](CCC2CCCCC2)C(=O)NCCN2CCc3cc(OC)ccc32)c1 [Compound 16, (S)-N-{3-Cyclohexyl-1-[2-(5-methoxy-2,3-dihydro-indol-1-yl)-ethylcarbamoyl]-propyl}-3-methoxy-benzamide] |
| < 0.1 | C[C@@H](CN1CCc2cc(F)ccc21)NC(=O)[C@H](CC1CCCCC1)NS(=O)(=O)c1cccc(Cl)c1 [Compound 259, (S,S)-2-(3-Chloro-benzenesulfonylamino)-3-cyclohexyl-N-[2-(5-fluoro-2,3-dihydro-indol-1-yl)-1-methyl-ethyl]-propionamide] |
| < 1 | Cc1cccc(C(=O)N[C@@H](CCC2CCCCC2)C(=O)NCCN2CCc3cc(F)ccc32)c1 [Compound 204, N-((S)-1-(2-(5-fluoroindolin-1-yl)ethylcarbamoyl)-3-cyclohexylpropyl)-3-methylbenzamide] |
| < 10 | COc1cccc(C(=O)N[C@@H](CCC2CCCCC2)C(=O)NCCN2CCc3cccc(F)c32)c1 [Compound 11, (S)-N-{3-Cyclohexyl-1-[2-(7-fluoro-2,3-dihydro-indol-1-yl)-ethylcarbamoyl]-propyl}-3-methoxy-benzamide] |

From patent US20040248887A1, “Inhibitors of cathepsin S” (IRM LLC, priority 2003, published 2004)
